In ChEMBL document CHEMBL5126634, “Naturally Occurring Partially Reduced Perylenequinones from Fungi” (J Nat Prod, 2022) one finds IC50 and GI50 data, which are given here for 9 molecules.

Values after ≈ are worked out from the molar mass of the structure shown.

One data set relates to L5178Y. In words: Cytotoxicity against mouse L5178Y cells assessed as cell growth inhibition. The class given is functional, cell-based.
The nature of data set [1]: Cytotoxicity against human HeLa cells assessed as cell growth inhibition. The class given is toxicity, cell-based. To be noted: read-out: ID50 (the source's name).
The subject of the next data set is MCF7. In words: Cytotoxicity against human MCF7 cells assessed as cell growth inhibition. The class given is functional, cell-based.
The test system of another data set is HepG2. In words: Cytotoxicity against human HepG2 cells assessed as cell growth inhibition. The class given is functional, cell-based.
In another data set the test system is NCI-H460. Briefly: Cytotoxicity against human NCI-H460 cells assessed as cell growth inhibition. The class given is functional, cell-based.
A further data set concerns SF-268. In words: Cytotoxicity against human SF-268 cells assessed as cell growth inhibition. The class given is functional, cell-based.
Another data set has as its system PC-3. In words: Cytotoxicity against human PC-3 cells assessed as cell growth inhibition. The class given is functional, cell-based.
Data set [2] deals with Telomerase reverse transcriptase (Homo sapiens, UniProt O14746). Briefly: Inhibition of human telomerase.
Chain of Telomerase reverse transcriptase (O14746 whole entry): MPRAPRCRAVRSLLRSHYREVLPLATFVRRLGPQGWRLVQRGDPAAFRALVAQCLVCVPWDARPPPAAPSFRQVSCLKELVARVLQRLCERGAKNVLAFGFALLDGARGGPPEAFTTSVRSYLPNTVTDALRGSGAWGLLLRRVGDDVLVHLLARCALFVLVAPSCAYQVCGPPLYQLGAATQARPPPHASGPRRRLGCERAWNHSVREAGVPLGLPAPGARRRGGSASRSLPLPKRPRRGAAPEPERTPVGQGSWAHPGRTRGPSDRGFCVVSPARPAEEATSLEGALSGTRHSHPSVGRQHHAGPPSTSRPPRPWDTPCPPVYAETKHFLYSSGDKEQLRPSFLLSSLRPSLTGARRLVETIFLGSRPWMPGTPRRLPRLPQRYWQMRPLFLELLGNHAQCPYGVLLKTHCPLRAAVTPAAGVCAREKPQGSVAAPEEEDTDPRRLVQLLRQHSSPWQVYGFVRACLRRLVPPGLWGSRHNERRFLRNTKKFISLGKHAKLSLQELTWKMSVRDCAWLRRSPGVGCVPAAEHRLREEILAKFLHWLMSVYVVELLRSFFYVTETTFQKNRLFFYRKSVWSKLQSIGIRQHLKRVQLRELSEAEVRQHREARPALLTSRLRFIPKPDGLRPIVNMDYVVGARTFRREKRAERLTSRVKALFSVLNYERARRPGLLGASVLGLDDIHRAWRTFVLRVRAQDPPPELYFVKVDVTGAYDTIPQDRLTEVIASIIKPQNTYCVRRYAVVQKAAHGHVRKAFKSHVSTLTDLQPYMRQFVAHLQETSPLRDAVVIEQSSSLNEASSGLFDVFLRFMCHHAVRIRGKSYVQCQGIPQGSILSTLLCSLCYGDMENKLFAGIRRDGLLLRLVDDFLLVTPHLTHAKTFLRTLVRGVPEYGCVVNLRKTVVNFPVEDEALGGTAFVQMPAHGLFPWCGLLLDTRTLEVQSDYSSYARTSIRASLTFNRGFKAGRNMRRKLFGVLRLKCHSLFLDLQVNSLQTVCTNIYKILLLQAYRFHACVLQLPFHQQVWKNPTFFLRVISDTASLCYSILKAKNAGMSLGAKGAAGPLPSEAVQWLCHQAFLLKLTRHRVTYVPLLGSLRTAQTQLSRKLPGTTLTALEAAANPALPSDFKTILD
The subject of another data set is Leishmania donovani. Briefly: Antileishmanial activity against Leishmania donovani promastigotes assessed as parasite growth inhibition incubated for 72 hrs by Alamar blue assay. The class given is functional, organism-based.
Data set [3] is described as follows: Cytotoxicity against African green monkey Vero cells assessed as cell growth inhibition incubated for 48 hrs by neutral red dye based assay. The class given is toxicity. To be noted: African green monkey (Chlorocebus sabaeus).
For data set [4], the system named is Plasmodium falciparum. Briefly: Antimalarial activity against chloroquine sensitive Plasmodium falciparum D6 assessed as parasite growth inhibition incubated for 72 hrs by Malstat reagent assay. The class given is functional, organism-based. To be noted: D6, 72 h.
The test system of data set [5] is Plasmodium falciparum. Briefly: Antimalarial activity against chloroquine resistant Plasmodium falciparum W2 assessed as parasite growth inhibition incubated for 72 hrs by Malstat reagent assay. The class given is functional, organism-based. To be noted: W2, 72 h.
The subject of a further data set is K562. In words: Cytotoxicity against human K562 cells assessed as cell growth inhibition. The class given is functional, cell-based.
For the next data set, the system named is SGC-7901. Briefly: Cytotoxicity against human SGC-7901 cells assessed as cell growth inhibition. The class given is functional, cell-based.
The next data set concerns Bel-7402. Briefly: Cytotoxicity against human Bel-7402 cells assessed as cell growth inhibition. The class given is functional, cell-based.

As for `O=C1CC[C@]2(O)c3c(ccc(O)c31)-c1ccc(O)c3c1[C@H]2[C@H]1O[C@H]1C3=O`, the IC50 with L5178Y was 6.2 µM; in the data set on MCF7 it was 1.9 µM; with HepG2 it was 1.9 µM; in the data set on NCI-H460 it was 1.9 µM; in the data set on SF-268, 1.9 µM; in the data set on PC-3, 14.3 µM. Moreover, the GI50 in data set [1] stood at 0.5 mg/L (≈ 1.43 µM).
For `O=C1C[C@H](O)[C@@H]2c3c(ccc(O)c31)-c1ccc(O)c3c1[C@@]2(O)C=CC3=O`, the IC50 in the data set on MCF7 came out at 1.9 µM; in the data set on HepG2, 1.9 µM; in the data set with NCI-H460, 1.9 µM; in the data set with SF-268, 1.9 µM; in data set [2] it was 30 µM.
Consider `O=C1C[C@@H](O)[C@]2(O)c3c(ccc(O)c31)-c1ccc(O)c3c1[C@@H]2[C@H]1O[C@@H]1[C@@H]3O`, for which, in the data set on Leishmania donovani, the IC50 came out at 2.5 mg/L (≈ 6.79 µM).
In the case of `O=C1C[C@H](O)[C@H]2c3c(ccc(O)c31)-c1ccc(O)c3c1[C@@]2(O)[C@H](O)CC3=O`, the IC50 at 48 h in data set [3] is 9.8 µM. The values for the IC50 with Leishmania donovani, with Plasmodium falciparum [4] and in the data set on Plasmodium falciparum [5] were 4.4 mg/L (≈ 11.9 µM), 4.2 mg/L (≈ 11.4 µM) and 3.6 mg/L (≈ 9.77 µM), respectively.
On to `O=C1CC[C@]2(O)c3c(ccc(O)c31)-c1ccc(O)c3c1[C@H]2[C@H]1O[C@H]1[C@@H]3O`, for which the IC50 in the data set with Leishmania donovani was determined as 3.1 mg/L (≈ 8.8 µM).
As for `O=C1C[C@H](O)[C@@H]2c3c(ccc(O)c31)-c1ccc(O)c3c1[C@@]2(O)[C@H](O)CC3=O`, the IC50 in the data set with K562 was 53.5 µM.
`CO[C@H]1CC(=O)c2c(O)ccc3c2[C@@]1(O)[C@@H]1c2c-3ccc(O)c2[C@@H](O)[C@@H]2O[C@@H]21`: the IC50 at 48 h in [3] came to 12.5 µM. For the same molecule, the IC50 with Leishmania donovani was 1.4 mg/L (≈ 3.66 µM); in the data set on Plasmodium falciparum [4], 3.2 mg/L (≈ 8.37 µM); with Plasmodium falciparum [5], 2.5 mg/L (≈ 6.54 µM).
For the molecule `O=C1CCc2c3c4c(cc(O)cc4c4ccc(O)c1c24)[C@H](O)CC3`, the results for the IC50 in the data set with K562, with SGC-7901 and with Bel-7402 were 83.1 µM, 27.5 µM and 40.9 µM, respectively.
For `O=C1C[C@H](O)[C@@H]2c3c(ccc(O)c31)-c1ccc(O)c3c1[C@@]2(O)CCC3=O` [ALTERTOXIN I], the GI50 in data set [1] was determined as 20 mg/L (≈ 56.8 µM).
